From patent US10160762B2, “6-alkyl dihydropyrazolopyrimidinone compounds as PDE2 inhibitors” (Merck Sharp & Dohme Corp., priority 2015, dated 2018)

The compounds below were run against T1, human PDE2A1 (Homo sapiens, UniProt O00408) (assay: IMAP FP PDE assay, human PDE2A1). Conditions: Lab B; read-out: Human PDE2 Ki (nM) Lab B.
T1 construct: GST; purchased BPS Bioscience (San Diego, Calif.) 60020; host or cells: insect cells
Assay type: biochemical
Outline: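 GST-tagged human PDE2A1 from insect cells; substrate 50 nM FAM-cAMP containing 1000 nM cGMP in Tris pH 7.2/MgCl2/DTT buffer, enzyme giving 20% conversion. 60 min at room temperature, IMAP binding reagent, fluorescence polarization read. Apparent Ki from FP readings using apparent KM 10,000 nM; ten-point 3-fold titrations.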

T1 sequence (O00408 1-920 isoform O00408-2): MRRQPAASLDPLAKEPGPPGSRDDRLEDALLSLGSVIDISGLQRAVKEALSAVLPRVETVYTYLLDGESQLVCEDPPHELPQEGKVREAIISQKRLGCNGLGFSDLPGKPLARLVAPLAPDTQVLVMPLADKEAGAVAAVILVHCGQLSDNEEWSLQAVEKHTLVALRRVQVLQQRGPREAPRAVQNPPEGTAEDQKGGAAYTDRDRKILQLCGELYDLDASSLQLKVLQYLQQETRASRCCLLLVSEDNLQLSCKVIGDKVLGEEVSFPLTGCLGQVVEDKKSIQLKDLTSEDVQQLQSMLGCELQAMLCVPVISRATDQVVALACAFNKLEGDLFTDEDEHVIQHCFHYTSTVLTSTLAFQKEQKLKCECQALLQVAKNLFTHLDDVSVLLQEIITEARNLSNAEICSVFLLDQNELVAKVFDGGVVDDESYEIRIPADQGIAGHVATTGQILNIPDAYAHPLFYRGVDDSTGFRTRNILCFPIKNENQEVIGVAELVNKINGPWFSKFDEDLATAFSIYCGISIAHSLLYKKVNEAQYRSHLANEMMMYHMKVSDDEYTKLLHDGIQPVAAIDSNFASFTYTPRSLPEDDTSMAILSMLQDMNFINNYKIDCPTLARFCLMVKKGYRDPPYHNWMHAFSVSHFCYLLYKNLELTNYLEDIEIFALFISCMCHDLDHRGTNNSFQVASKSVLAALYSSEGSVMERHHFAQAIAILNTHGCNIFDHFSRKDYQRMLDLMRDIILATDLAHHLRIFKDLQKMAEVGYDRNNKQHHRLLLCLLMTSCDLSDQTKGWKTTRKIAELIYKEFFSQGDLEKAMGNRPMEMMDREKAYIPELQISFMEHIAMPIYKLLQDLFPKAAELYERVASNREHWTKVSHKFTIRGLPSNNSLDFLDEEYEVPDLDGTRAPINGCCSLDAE

Structure (SMILES)	Ki
Cc1nc2c(c(C(F)F)nn2C(C)c2ccc(S(F)(F)(F)(F)F)cc2)c(=O)[nH]1 (single isomer, unassigned) [Example 161]	224 nM
Cc1nc2c(c(C(F)F)nn2C(C)c2ccc(S(F)(F)(F)(F)F)cc2)c(=O)[nH]1 (single isomer, unassigned) [Example 162]	1.8 nM
Cc1nc2c(c(C(F)F)nn2C(C)c2ccc(C(F)(F)F)c(F)c2)c(=O)[nH]1 (single isomer, unassigned) [Example 167, (R)- or (S)-3-(Difluoromethyl)-1-(1-(3-fluoro-4-(trifluoromethyl)phenyl)ethyl)-6-methyl-1H-pyrazolo[3,4-d]pyrimidin-4(5H)-one]	256 nM
Cc1nc2c(c(C(F)F)nn2C(C)c2ccc(C(F)(F)F)c(F)c2)c(=O)[nH]1 (single isomer, unassigned) [Example 168, (S)- or (R)-3-(Difluoromethyl)-1-(1-(3-fluoro-4-(trifluoromethyl)phenyl)ethyl)-6-methyl-1H-pyrazolo[3,4-d]pyrimidin-4(5H)-one]	1.4 nM
Cc1nc2c(c(C(F)F)nn2C(C)c2ccc(OC(F)(F)F)c(F)c2)c(=O)[nH]1 (single isomer, unassigned) [Example 169, (R)- or (S)-3-(Difluoromethyl)-1-(1-(3-fluoro-4-(trifluoromethoxy)phenyl)ethyl)-6-methyl-1H-pyrazolo [3,4-d]pyrimidin-4(5H)-one]	18 nM
Cc1nc2c(c(C(F)F)nn2C(C)c2ccc(OC(F)(F)F)c(F)c2)c(=O)[nH]1 (single isomer, unassigned) [Example 170, (S)- or (R)-3-(Difluoromethyl)-1-(1-(3-fluoro-4-(trifluoromethoxy)phenyl)ethyl)-6-methyl-1H-pyrazolo [3,4-d]pyrimidin-4(5H)-one]	0.48 nM
Cc1nc2c(c(C(F)F)nn2C(c2ccc(C(F)(F)F)cc2)C(C)C)c(=O)[nH]1 (single isomer, unassigned) [Example 171, (R)- or (S)-3-(Difluoromethyl)-6-methyl-1-(2-methyl-1-(4-(trifluoromethyl)phenyl)propyl)-1H-pyrazolo[3,4-d] pyrimidin-4(5H)-one]	43 nM
Cc1nc2c(c(C(F)F)nn2C(c2ccc(C(F)(F)F)cc2)C(C)C)c(=O)[nH]1 (single isomer, unassigned) [Example 172, (S)- or (R)-3-(Difluoromethyl)-6-methyl-1-(2-methyl-1-(4-(trifluoromethyl)phenyl)propyl)-1H-pyrazolo[3,4-d] pyrimidin-4(5H)-one]	0.31 nM
COCC(c1ccc(C(F)(F)F)cc1)n1nc(C(F)F)c2c(=O)[nH]c(C)nc21 (single isomer, unassigned) [Example 173, (R)- or (S)-3-(Difluoromethyl)-1-(2-methoxy-1-(4-(trifluoromethyl)phenyl)ethyl)-6-methyl-1H-pyrazolo[3,4-d]pyrimidin-4(5H)-one]	4.6 nM
COCC(c1ccc(C(F)(F)F)cc1)n1nc(C(F)F)c2c(=O)[nH]c(C)nc21 (single isomer, unassigned) [Example 174, (S)- or (R)-3-(Difluoromethyl)-1-(2-methoxy-1-(4-(trifluoromethyl)phenyl)ethyl)-6-methyl-1H-pyrazolo[3,4-d]pyrimidin-4(5H)-one]	278 nM
Cc1nc2c(c(C(F)F)nn2C(C)c2ccc(OC(F)(F)F)cc2)c(=O)[nH]1 (single isomer, unassigned) [Example 177, (R)- or (S)-3-(Difluoromethyl)-6-methyl-1-(1-(4-(trifluoromethoxy)phenyl)ethyl)-1H-pyrazolo[3,4-d]pyrimidin-4(5H)-one]	61 nM
Cc1nc2c(c(C(F)F)nn2C(C)c2ccc(OC(F)(F)F)cc2)c(=O)[nH]1 (single isomer, unassigned) [Example 178, (S)- or (R)-3-(Difluoromethyl)-6-methyl-1-(1-(4-(trifluoromethoxy)phenyl)ethyl)-1H-pyrazolo[3,4-d]pyrimidin-4(5H)-one]	0.72 nM
Cc1nc2c(c(C(F)F)nn2C(C)c2ccc(SC(F)(F)F)cc2)c(=O)[nH]1 (single isomer, unassigned) [Example 179, (R)- or (S)-3-(Difluoromethyl)-6-methyl-1-(1-(4-(trifluoromethylthio)phenyl)ethyl)-1H-pyrazolo[3,4-d] pyrimidin-4(5H)-one]	28 nM
Cc1nc2c(c(C(F)F)nn2C(C)c2ccc(SC(F)(F)F)cc2)c(=O)[nH]1 (single isomer, unassigned) [Example 180, (S)- or (R)-3-(Difluoromethyl)-6-methyl-1-(1-(4-(trifluoromethylthio)phenyl)ethyl)-1H-pyrazolo[3,4-d] pyrimidin-4(5H)-one]	0.55 nM
Cc1nc2c(c(C(F)F)nn2C(C)c2ccc(OC(F)F)cc2)c(=O)[nH]1 (single isomer, unassigned) [Example 181, (R)- or (S)-1-(1-(4-(Difluoromethoxy)phenyl)ethyl)-3-(difluoromethyl)-6-methyl-1H-pyrazolo[3,4-d]pyrimidin-4(5H)-one]	82 nM
Cc1nc2c(c(C(F)F)nn2C(C)c2ccc(C(F)(F)F)cc2Cl)c(=O)[nH]1 (single isomer, unassigned) [Example 183, (R)- or (S)-1-(1-(2-Chloro-4-(trifluoromethyl)phenyl)ethyl)-3-(difluoromethyl)-6-methyl-1H-pyrazolo[3,4-d]pyrimidin-4(5H)-one]	547 nM

Continued, values first:

Ki	Structure (SMILES)
0.59 nM	Cc1nc2c(c(CO)nn2C(C)c2ccc(C3(C)CC3)cc2)c(=O)[nH]1 (single isomer, unassigned) [Example 144, (S)- or (R)-3-(Hydroxymethyl)-6-methyl-1-(1-(4-(1-methylcyclopropyl)phenyl)ethyl)-1H-pyrazolo[3,4-d]pyrimidin-4(5H)-one]
> 2960 nM	Cc1nc2c(c(CO)nn2C(C)c2ccc(C(F)(F)F)nn2)c(=O)[nH]1 (single isomer, unassigned) [Example 145, (R)- or (S)-3-(Hydroxymethyl)-6-methyl-1-(1-(6-(trifluoromethyl)pyridazin-3-yl)ethyl)-1H-pyrazolo[3,4-d]pyrimidin-4(5H)-one]
58 nM	Cc1nc2c(c(CO)nn2C(C)c2ccc(C(F)(F)F)nn2)c(=O)[nH]1 (single isomer, unassigned) [Example 146, (S)- or (R)-3-(Hydroxymethyl)-6-methyl-1-(1-(6-(trifluoromethyl)pyridazin-3-yl)ethyl)-1H-pyrazolo[3,4-d]pyrimidin-4(5H)-one]
> 2960 nM	Cc1nc2c(c(CO)nn2C(C)c2ncn(CC(F)(F)F)n2)c(=O)[nH]1 (single isomer, unassigned) [Example 147]
671 nM	Cc1nc2c(c(CO)nn2C(C)c2ncn(CC(F)(F)F)n2)c(=O)[nH]1 (single isomer, unassigned) [Example 148]
> 2960 nM	Cc1nc2c(c(CO)nn2C(C)c2cnn(CC(F)(F)F)c2)c(=O)[nH]1 (single isomer, unassigned) [Example 149, (R)- or (S)-3-(Hydroxymethyl)-6-methyl-1-(1-(1-(2,2,2-trifluoroethyl)-1H-pyrazol-4-yl)ethyl)-1H-pyrazolo[3,4-d]pyrimidin-4(5H)-one]
158 nM	Cc1nc2c(c(CO)nn2C(C)c2cnn(CC(F)(F)F)c2)c(=O)[nH]1 (single isomer, unassigned) [Example 150, (S)- or (R)-3-(Hydroxymethyl)-6-methyl-1-(1-(1-(2,2,2-trifluoroethyl)-1H-pyrazol-4-yl)ethyl)-1H-pyrazolo[3,4-d]pyrimidin-4(5H)-one]
25 nM	Cc1nc2c(c(CO)nn2C(C)c2ccc(C(F)(F)F)cn2)c(=O)[nH]1 (single isomer, unassigned) [Example 151, (R)- or (S)-3-(Hydroxymethyl)-6-methyl-1-(1-(5-(trifluoromethyl)pyridin-2-yl)ethyl)-1H-pyrazolo[3,4-d]pyrimidin-4(5H)-one]
1180 nM	Cc1nc2c(c(CO)nn2C(C)c2ccc(C(F)(F)F)cn2)c(=O)[nH]1 (single isomer, unassigned) [Example 152, (S)- or (R)-3-(Hydroxymethyl)-6-methyl-1-(1-(5-(trifluoromethyl)pyridin-2-yl)ethyl)-1H-pyrazolo[3,4-d]pyrimidin-4(5H)-one]
> 2960 nM	Cc1nc2c(c(CO)nn2C(C)c2ccc(Cl)s2)c(=O)[nH]1 (single isomer, unassigned) [Example 153, (R)- or (S)-1-(1-(5-Chlorothiophen-2-yl)ethyl)-3-(hydroxymethyl)-6-methyl-1H-pyrazolo[3,4-d]pyrimidin-4(5H)-one]
18 nM	Cc1nc2c(c(CO)nn2C(C)c2ccc(Cl)s2)c(=O)[nH]1 (single isomer, unassigned) [Example 154, (S)- or (R)-1-(1-(5-Chlorothiophen-2-yl)ethyl)-3-(hydroxymethyl)-6-methyl-1H-pyrazolo[3,4-d]pyrimidin-4(5H)-one]
~1630 nM	Cc1nc2c(c(CO)nn2C(C)c2ccc(C(F)(F)F)s2)c(=O)[nH]1 (single isomer, unassigned) [Example 155, (R)- or (S)-3-(Hydroxymethyl)-6-methyl-1-(1-(5-(trifluoromethyl)thiophen-2-yl)ethyl)-1H-pyrazolo[3,4-d]pyrimidin-4(5H)-one]
8.5 nM	Cc1nc2c(c(CO)nn2C(C)c2ccc(C(F)(F)F)s2)c(=O)[nH]1 (single isomer, unassigned) [Example 156, (S)- or (R)-3-(Hydroxymethyl)-6-methyl-1-(1-(5-(trifluoromethyl)thiophen-2-yl)ethyl)-1H-pyrazolo[3,4-d]pyrimidin-4(5H)-one]
1.6 nM	Cc1nc2c(c(C(F)F)nn2C(C)c2ccc(C(F)(F)F)cc2Cl)c(=O)[nH]1 (single isomer, unassigned) [Example 184, (S)- or (R)-1-(1-(2-Chloro-4-(trifluoro-methyl)phenyl)-ethyl)-3-(difluoromethyl)-6-methyl-1H-pyrazolo[3,4-d]pyrimidin-4(5H)-one]
